These are literature values, as cited in patent US12576027B2, “Diclofenac topical formulation with a high absorption rate” (IBSA INSTITUT BIOCHIMIQUE SA, priority 2021, dated 2026).

A value given as a limit tells only on which side of the number the result lay.

For the series the following is noted: orally administered.

As to `O=C(O)Cc1ccccc1Nc1c(Cl)cccc1Cl` [diclofenac, 2-[(2,6-dichlorophenyl)-amino]benzeneacetic acid], the absorption result is listed as “almost complete” and the “time to high hematic peaks from administration” value was not above 2 h.
